Consider 14 molecules from patent US9855272B2, “1H-pyrazolo[3,4-B]pyridines and therapeutic uses thereof” (Samumed, LLC, priority 2009, dated 2018).

SMILES strings stand for the structures. pIC50: −log10 of the molar value.

The assay deals with Wnt. The assay can be described thus: Wnt reporter assay: SP5 promoter-driven firefly luciferase in SW480 cells. It counts as cell-based. Conditions: Homo sapiens; SW480 colon cancer cells with SP5 promoter (TCF/LEF) luciferase reporter; 24-40 h after compound addition; normalized to DMSO; read-out: Wnt inhibition, IC50. The text has this: Another screening assay for Wnt activity is described as follows. Reporter cell lines can be generated by stably transducing cells of cancer cell lines (e.g., colon cancer) with a lentiviral construct that include a wnt-responsive promoter driving expression of the firefly luciferase gene.
Lentiviral constructs can be made in which the SP5 promoter, a promoter having eight TCF/LEF binding sites derived from the SP5 promoter, is linked upstream of the firefly luciferase gene. The lentiviral constructs can also include a hygromycin resistance gene as a selectable marker. The SP5 promoter construct can be used to transduce SW480 cells, a colon cancer cell line having a mutated APC gene that generates a truncated APC protein, leading to de-regulated accumulation of β-catenin.
Cultured SW480 cells bearing a reporter construct can be distributed at approximately 10,000 cells per well into 96 well or 384 well plates. Compounds from a small molecule compound library can then be added to the wells in half-log dilutions using a ten micromolar top concentration. A series of control wells for each cell type receive only buffer and compound solvent. Twenty-four to forty hours after the addition of compound, reporter activity for luciferase can be assayed, for example, by addition of the BrightGlo luminescence reagent (Promega) and the Victor3 plate reader (Perkin Elmer). Readings can be normalized to DMSO only treated cells, and normalized activities can then be used in the IC50 calculations.
As a reminder, the pIC50 is −log10 of the IC50, conventionally taken in molar units. For `CCC(=O)Nc1cncc(-c2cnc3[nH]nc(-c4nc5c(-c6cccnc6)cncc5[nH]4)c3c2)c1` [Compound 47, N-(5-(3-(7-(pyridin-3-yl)-3H-imidazo[4,5-c]pyridin-2-yl)-1H-pyrazolo[3,4-b]pyridin-5-yl)pyridin-3-yl)propionamide], the pIC50 was 5.00 to 5.15.

On to `c1cncc(-c2cnc3[nH]nc(-c4nc5c(-c6cccnc6)cncc5[nH]4)c3c2)c1` [Compound 45], for which the negative-log IC50 (pIC50) is 5.92 to 6.70. With `CCC(=O)Nc1cncc(-c2cnc3[nH]nc(-c4nc5c(-c6ccccc6F)cncc5[nH]4)c3c2)c1` [Compound 51, N-(5-(3-(7-(2-fluorophenyl)-3H-imidazo[4,5-c]pyridin-2-yl)-1H-pyrazolo[3,4-b]pyridin-5-yl)pyridin-3-yl)propionamide] the figure was more than 7.35. Turning to `CC(C)CC(=O)Nc1cncc(-c2cnc3[nH]nc(-c4nc5c(N6CCN(C)CC6)cncc5[nH]4)c3c2)c1` [Compound 57, 3-methyl-N-(5-(3-(7-(4-methylpiperazin-1-yl)-3H-imidazo[4,5-c]pyridin-2-yl)-1H-pyrazolo[3,4-b]pyridin-5-yl)pyridin-3-yl)butanamide], the pIC50 was 5.40 to 6.00.

For the molecule `CC(C)C(=O)Nc1cncc(-c2cnc3[nH]nc(-c4nc5c(N6CCN(C)CC6)cncc5[nH]4)c3c2)c1` [Compound 59, N-(5-(3-(7-(4-methylpiperazin-1-yl)-3H-imidazo[4,5-c]pyridin-2-yl)-1H-pyrazolo[3,4-b]pyridin-5-yl)pyridin-3-yl)isobutyramide], the negative logarithm of the IC50 (pIC50) was 5.52 to 5.70. In the case of `CCC(=O)Nc1cncc(-c2cnc3[nH]nc(-c4nc5c(-c6cccc(F)c6)cncc5[nH]4)c3c2)c1` [Compound 49, N-(5-(3-(7-(3-fluorophenyl)-3H-imidazo[4,5-c]pyridin-2-yl)-1H-pyrazolo[3,4-b]pyridin-5-yl)pyridin-3-yl)propionamide] it was more than 8.30; in that of `Cc1ccncc1-c1cnc2[nH]nc(-c3nc4ccncc4[nH]3)c2c1` [Compound 29, 3-(3H-imidazo[4,5-c]pyridin-2-yl)-5-(4-methylpyridin-3-yl)-1H-pyrazolo[3,4-b]pyridine], 5.30 to 5.52. In the case of `CCC(=O)Nc1cncc(-c2cnc3[nH]nc(-c4nc5c(N6CCOCC6)cncc5[nH]4)c3c2)c1` [Compound 55, N-(5-(3-(7-morpholino-3H-imidazo[4,5-c]pyridin-2-yl)-1H-pyrazolo[3,4-b]pyridin-5-yl)pyridin-3-yl)propionamide] it was less than 5.00. With `CN(C)C(=O)Nc1cncc(-c2cnc3[nH]nc(-c4nc5c(-c6cccc(F)c6)cncc5[nH]4)c3c2)c1` [Compound 66, 3-(5-(3-(7-(3-fluorophenyl)-3H-imidazo[4,5-c]pyridin-2-yl)-1H-pyrazolo[3,4-b]pyridin-5-yl)pyridin-3-yl)-1,1-dimethylurea] the figure was more than 7.82. With `CCC(=O)Nc1cncc(-c2cnc3[nH]nc(-c4nc5c(-c6ccc(F)cc6)cncc5[nH]4)c3c2)c1` [Compound 50, N-(5-(3-(7-(4-fluorophenyl)-3H-imidazo[4,5-c]pyridin-2-yl)-1H-pyrazolo[3,4-b]pyridin-5-yl)pyridin-3-yl)propionamide], the negative logarithm of the IC50 (pIC50) was more than 8.82.

For the molecule `CC(C)C(=O)Nc1cncc(-c2cnc3[nH]nc(-c4nc5ccncc5[nH]4)c3c2)c1` [Compound 52, N-(5-(3-(3H-imidazo[4,5-c]pyridin-2-yl)-1H-pyrazolo[3,4-b]pyridin-5-yl)pyridin-3-yl)isobutyramide], the negative-log IC50 (pIC50) is less than 5.00. For the molecule `c1cncc(-c2cnc3[nH]nc(-c4nc5ccncc5[nH]4)c3c2)c1` [Compound 46], the pIC50 is 5.70 to 6.00. With `CC(C)CC(=O)Nc1cncc(-c2cnc3[nH]nc(-c4nc5ccncc5[nH]4)c3c2)c1` [Compound 53, N-(5-(3-(3H-imidazo[4,5-c]pyridin-2-yl)-1H-pyrazolo[3,4-b]pyridin-5-yl)pyridin-3-yl)-3-methylbutanamide] the figure was less than 5.00; with `O=C(Nc1cncc(-c2cnc3[nH]nc(-c4nc5c(-c6cccc(F)c6)cncc5[nH]4)c3c2)c1)N1CCOCC1` [Compound 62, N-(5-(3-(7-(3-fluorophenyl)-3H-imidazo[4,5-c]pyridin-2-yl)-1H-pyrazolo[3,4-b]pyridin-5-yl)pyridin-3-yl)morpholine-4-carboxamide], more than 7.70.
